# Measured values taken from PubChem BioAssay (NCI).
#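 Each compound was tested at five concentrations against cells in 96-well plates for 48 hours. At the GI50, growth is halved. TGI marks complete inhibition of growth.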
# Legend:
# Experiment in all cases: DTP human tumour cell line panel, 48 h
# 786-0 renal = tested on: 786-0 renal
# A498 renal = tested on: A498 renal
# A549 NSCLC = tested on: A549 NSCLC
# ACHN renal = tested on: ACHN renal
# BT-549 breast = tested on: BT-549 breast
# CAKI-1 renal = tested on: CAKI-1 renal
# CCRF-CEM leukemia = tested on: CCRF-CEM leukemia
# COLO 205 colon = tested on: COLO 205 colon
# DU-145 prostate = tested on: DU-145 prostate
# EKVX NSCLC = tested on: EKVX NSCLC
# HCC-2998 colon = tested on: HCC-2998 colon
# HCT-116 colon = tested on: HCT-116 colon
# HCT-15 colon = tested on: HCT-15 colon
# HL-60(TB) leukemia = tested on: HL-60(TB) leukemia
# HOP-62 NSCLC = tested on: HOP-62 NSCLC
# HOP-92 NSCLC = tested on: HOP-92 NSCLC
# HS 578T breast = tested on: HS 578T breast
# HT29 colon = tested on: HT29 colon
# K-562 leukemia = tested on: K-562 leukemia
# KM12 colon = tested on: KM12 colon
# LOX IMVI melanoma = tested on: LOX IMVI melanoma
# M14 melanoma = tested on: M14 melanoma
# MALME-3M melanoma = tested on: MALME-3M melanoma
# MCF7 breast = tested on: MCF7 breast
# MDA-MB-231 breast = tested on: MDA-MB-231 breast
# MDA-MB-435 = tested on: MDA-MB-435
# MOLT-4 leukemia = tested on: MOLT-4 leukemia
# NCI-H226 lung = tested on: NCI-H226 lung
# NCI-H23 lung = tested on: NCI-H23 lung
# NCI-H460 lung = tested on: NCI-H460 lung
# NCI-H522 lung = tested on: NCI-H522 lung
# NCI/ADR-RES ovarian = tested on: NCI/ADR-RES ovarian
# OVCAR-3 ovarian = tested on: OVCAR-3 ovarian
# OVCAR-4 ovarian = tested on: OVCAR-4 ovarian
# OVCAR-5 ovarian = tested on: OVCAR-5 ovarian
# OVCAR-8 ovarian = tested on: OVCAR-8 ovarian
# PC-3 prostate = tested on: PC-3 prostate
# RPMI-8226 leukemia = tested on: RPMI-8226 leukemia
# RXF 393 renal = tested on: RXF 393 renal
# SF-268 CNS = tested on: SF-268 CNS
# SF-295 CNS = tested on: SF-295 CNS
# SF-539 CNS = tested on: SF-539 CNS
# SK-MEL-28 melanoma = tested on: SK-MEL-28 melanoma
# SK-MEL-5 melanoma = tested on: SK-MEL-5 melanoma
# SK-OV-3 ovarian = tested on: SK-OV-3 ovarian
# SN12C renal = tested on: SN12C renal
# SNB-19 CNS = tested on: SNB-19 CNS
# SNB-75 CNS = tested on: SNB-75 CNS
# SR leukemia = tested on: SR leukemia
# SW-620 colon = tested on: SW-620 colon
# T-47D breast = tested on: T-47D breast
# TK-10 renal = tested on: TK-10 renal
# U251 CNS = tested on: U251 CNS
# UACC-257 melanoma = tested on: UACC-257 melanoma
# UACC-62 melanoma = tested on: UACC-62 melanoma
# UO-31 renal = tested on: UO-31 renal
compound,measurement,setting,value
COc1ccc2c(c1)[n+]([O-])c(C#N)c(NC(=O)c1cccs1)[n+]2[O-],GI50,786-0 renal,> 100 µM
same,TGI,786-0 renal,> 100 µM
same,GI50,A498 renal,> 100 µM
same,TGI,A498 renal,> 100 µM
same,GI50,A549 NSCLC,> 100 µM
same,TGI,A549 NSCLC,> 100 µM
same,GI50,ACHN renal,> 100 µM
same,TGI,ACHN renal,> 100 µM
same,GI50,BT-549 breast,> 100 µM
same,TGI,BT-549 breast,> 100 µM
same,GI50,CAKI-1 renal,> 100 µM
same,TGI,CAKI-1 renal,> 100 µM
same,GI50,CCRF-CEM leukemia,> 100 µM
same,TGI,CCRF-CEM leukemia,> 100 µM
same,GI50,COLO 205 colon,> 100 µM
same,TGI,COLO 205 colon,> 100 µM
same,GI50,DU-145 prostate,> 100 µM
same,TGI,DU-145 prostate,> 100 µM
same,GI50,EKVX NSCLC,> 100 µM
same,TGI,EKVX NSCLC,> 100 µM
same,GI50,HCC-2998 colon,> 100 µM
same,TGI,HCC-2998 colon,> 100 µM
same,GI50,HCT-116 colon,> 100 µM
same,TGI,HCT-116 colon,> 100 µM
same,GI50,HCT-15 colon,> 100 µM
same,TGI,HCT-15 colon,> 100 µM
same,GI50,HL-60(TB) leukemia,> 100 µM
same,TGI,HL-60(TB) leukemia,> 100 µM
same,GI50,HOP-62 NSCLC,> 100 µM
same,TGI,HOP-62 NSCLC,> 100 µM
same,GI50,HOP-92 NSCLC,> 100 µM
same,TGI,HOP-92 NSCLC,> 100 µM
same,GI50,HS 578T breast,> 100 µM
same,TGI,HS 578T breast,> 100 µM
same,GI50,HT29 colon,> 100 µM
same,TGI,HT29 colon,> 100 µM
same,GI50,K-562 leukemia,> 100 µM
same,TGI,K-562 leukemia,> 100 µM
same,GI50,KM12 colon,> 100 µM
same,TGI,KM12 colon,> 100 µM
same,GI50,LOX IMVI melanoma,> 100 µM
same,TGI,LOX IMVI melanoma,> 100 µM
same,GI50,M14 melanoma,> 100 µM
same,TGI,M14 melanoma,> 100 µM
same,GI50,MALME-3M melanoma,> 100 µM
same,TGI,MALME-3M melanoma,> 100 µM
same,GI50,MCF7 breast,> 100 µM
same,TGI,MCF7 breast,> 100 µM
same,GI50,MDA-MB-231 breast,> 100 µM
same,TGI,MDA-MB-231 breast,> 100 µM
same,GI50,MDA-MB-435,> 100 µM
same,TGI,MDA-MB-435,> 100 µM
same,GI50,MOLT-4 leukemia,> 100 µM
same,TGI,MOLT-4 leukemia,> 100 µM
same,GI50,NCI-H226 lung,> 100 µM
same,TGI,NCI-H226 lung,> 100 µM
same,GI50,NCI-H23 lung,> 100 µM
same,TGI,NCI-H23 lung,> 100 µM
same,GI50,NCI-H460 lung,> 100 µM
same,TGI,NCI-H460 lung,> 100 µM
same,GI50,NCI-H522 lung,> 100 µM
same,TGI,NCI-H522 lung,> 100 µM
same,GI50,NCI/ADR-RES ovarian,> 100 µM
same,TGI,NCI/ADR-RES ovarian,> 100 µM
same,GI50,OVCAR-3 ovarian,> 100 µM
same,TGI,OVCAR-3 ovarian,> 100 µM
same,GI50,OVCAR-4 ovarian,> 100 µM
same,TGI,OVCAR-4 ovarian,> 100 µM
same,GI50,OVCAR-5 ovarian,> 100 µM
same,TGI,OVCAR-5 ovarian,> 100 µM
same,GI50,OVCAR-8 ovarian,> 100 µM
same,TGI,OVCAR-8 ovarian,> 100 µM
same,GI50,PC-3 prostate,> 100 µM
same,TGI,PC-3 prostate,> 100 µM
same,GI50,RPMI-8226 leukemia,> 100 µM
same,TGI,RPMI-8226 leukemia,> 100 µM
same,GI50,RXF 393 renal,> 100 µM
same,TGI,RXF 393 renal,> 100 µM
same,GI50,SF-268 CNS,> 100 µM
same,TGI,SF-268 CNS,> 100 µM
same,GI50,SF-295 CNS,> 100 µM
same,TGI,SF-295 CNS,> 100 µM
same,GI50,SF-539 CNS,> 100 µM
same,TGI,SF-539 CNS,> 100 µM
same,GI50,SK-MEL-28 melanoma,> 100 µM
same,TGI,SK-MEL-28 melanoma,> 100 µM
same,GI50,SK-MEL-5 melanoma,> 100 µM
same,TGI,SK-MEL-5 melanoma,> 100 µM
same,GI50,SK-OV-3 ovarian,> 100 µM
same,TGI,SK-OV-3 ovarian,> 100 µM
same,GI50,SN12C renal,> 100 µM
same,TGI,SN12C renal,> 100 µM
same,GI50,SNB-19 CNS,> 100 µM
same,TGI,SNB-19 CNS,> 100 µM
same,GI50,SNB-75 CNS,> 100 µM
same,TGI,SNB-75 CNS,> 100 µM
same,GI50,SR leukemia,> 100 µM
same,TGI,SR leukemia,> 100 µM
same,GI50,SW-620 colon,> 100 µM
same,TGI,SW-620 colon,> 100 µM
same,GI50,T-47D breast,> 100 µM
same,TGI,T-47D breast,> 100 µM
same,GI50,TK-10 renal,> 100 µM
same,TGI,TK-10 renal,> 100 µM
same,GI50,U251 CNS,> 100 µM
same,TGI,U251 CNS,> 100 µM
same,GI50,UACC-257 melanoma,> 100 µM
same,TGI,UACC-257 melanoma,> 100 µM
same,GI50,UACC-62 melanoma,> 100 µM
same,TGI,UACC-62 melanoma,> 100 µM
same,GI50,UO-31 renal,> 100 µM
same,TGI,UO-31 renal,> 100 µM
